This test has as its target Xanthine dehydrogenase/oxidase (Homo sapiens, UniProt P47989). In words: Inhibition of xanthine oxidase (unknown origin) using xanthine as substrate preincubated for 5 mins followed by substrate addition measured for 20 mins by spectrophotometric method.

Experimental findings from ChEMBL document CHEMBL4152313, “Design, synthesis and bioevaluation of 2-mercapto-6-phenylpyrimidine-4-carboxylic acid derivatives as potent xanthine oxidase inhibitors” (Eur J Med Chem, 2018) are described below.

Chain of Xanthine dehydrogenase/oxidase (P47989 whole entry): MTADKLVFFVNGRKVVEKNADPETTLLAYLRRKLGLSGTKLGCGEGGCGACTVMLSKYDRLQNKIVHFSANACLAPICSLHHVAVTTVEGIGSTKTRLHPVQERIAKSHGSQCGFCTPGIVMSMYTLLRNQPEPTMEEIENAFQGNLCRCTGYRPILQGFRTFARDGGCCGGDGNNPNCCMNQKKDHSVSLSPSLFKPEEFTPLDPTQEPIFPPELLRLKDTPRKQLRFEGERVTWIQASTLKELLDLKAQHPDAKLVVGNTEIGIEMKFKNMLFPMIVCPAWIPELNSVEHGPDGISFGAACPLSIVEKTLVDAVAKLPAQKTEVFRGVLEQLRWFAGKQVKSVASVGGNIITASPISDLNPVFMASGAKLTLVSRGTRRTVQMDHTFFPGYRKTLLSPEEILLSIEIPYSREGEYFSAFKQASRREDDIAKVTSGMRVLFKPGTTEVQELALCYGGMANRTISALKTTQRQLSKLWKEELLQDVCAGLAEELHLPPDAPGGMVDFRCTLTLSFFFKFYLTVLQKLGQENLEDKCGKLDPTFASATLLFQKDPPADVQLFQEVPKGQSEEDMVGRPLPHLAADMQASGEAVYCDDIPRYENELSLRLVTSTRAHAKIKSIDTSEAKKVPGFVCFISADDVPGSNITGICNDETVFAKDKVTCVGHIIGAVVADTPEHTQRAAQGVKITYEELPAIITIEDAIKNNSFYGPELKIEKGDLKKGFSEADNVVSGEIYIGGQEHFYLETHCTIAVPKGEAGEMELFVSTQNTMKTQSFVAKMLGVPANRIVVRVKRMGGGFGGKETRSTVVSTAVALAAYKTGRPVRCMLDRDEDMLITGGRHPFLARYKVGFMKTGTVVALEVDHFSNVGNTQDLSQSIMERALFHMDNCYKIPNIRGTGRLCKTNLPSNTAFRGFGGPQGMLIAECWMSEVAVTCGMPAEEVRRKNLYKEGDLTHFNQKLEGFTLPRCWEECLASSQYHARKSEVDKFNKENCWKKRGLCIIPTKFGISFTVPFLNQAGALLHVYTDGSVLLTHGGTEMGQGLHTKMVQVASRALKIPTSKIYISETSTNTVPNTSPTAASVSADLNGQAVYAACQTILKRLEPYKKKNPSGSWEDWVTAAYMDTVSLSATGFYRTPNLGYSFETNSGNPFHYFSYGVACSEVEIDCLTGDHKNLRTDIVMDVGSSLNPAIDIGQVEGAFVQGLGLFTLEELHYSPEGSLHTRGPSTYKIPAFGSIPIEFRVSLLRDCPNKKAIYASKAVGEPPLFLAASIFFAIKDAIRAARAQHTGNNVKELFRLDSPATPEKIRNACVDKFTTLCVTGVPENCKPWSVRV

By IC50 is commonly meant the concentration at which inhibition is half-maximal. `Cc1nc(-c2ccc(OCC(C)C)c(C#N)c2)sc1C(=O)O` [FEBUXOSTAT] returned an IC50 of 13 nM.
